Legend:
Type in all cases: physicochemical
[1] = % weight loss / water content (TGA, KF) after storage at various relative humidity; details: for % weight loss/water cont. - after 21 days, TGA: TGA up to 121° C.
Description: (§1) The obtained amorphous form was stored at various conditions, and the PXRD was analyzed after 3 and 7 days:
(§2) The obtained form alpha was stored at various conditions, and the PXRD was analyzed after 3 and 8 days:
(§3) The obtained amorphous form was stored at various conditions of relative humidity, and the PXRD was obtained after 1M (Table 4):
(§4) The obtained amorphous form was stored at various conditions, and the PXRD was obtained after 2M (Table 5):
(§5) XRPD pattern is shown in FIG. 16; SEM image is shown in FIG. 17; DSC thermogram is shown in FIG. 21 and TGA thermogram is shown in FIG. 22. The obtained form alpha was stored at various conditions, and the PXRD was obtained after 8, 14, and 21 days (Table 6): […]

[2] = Polymorph stability on storage at various relative humidity (PXRD)
Description: Sample after being powdered in a mortar and pestle is applied directly on a silicon plate holder. The X-ray powder diffraction pattern was measured with Philips X'Pert PRO X-ray powder diffractometer, equipped with Cu irradiation source=1.54184 Å(Ångström), X'Celerator (2.022° 2θ) detector. Scanning parameters: angle range: 3-40 deg., step size 0.0167, time per step 37 s, continuous scan.
as §1
The obtained pure amorphous form was stored at various conditions, and the PXRD was analyzed after 3 and 7 days:
as §2, §3, §4, §5

[3] = Specific surface area (SSA), BET nitrogen
Description: Specific Surface Area (SSA) measurements (Bet Nitrogen) were determined using a Micromeritics ASAP 2000, specific surface area analyzer. Samples were subjected to the BET nitrogen adsorption analysis to determine the specific surface of the samples.
Sample tube: 10 cc bulb with ½″ stem
Sample mass: Approximately ½ full cell
Sample preparation: Degassing with nitrogen
Outgassing conditions: 40° C. (30 min)
Isothermal collection point: 20 adsorption points, in the range 0-1 P/P0
Isothermal data analysis range: 5 point BET in the range 0.05-0.20 P/P0
Equilibration interval: 5 s
Equilibration time out: 600 s

[4] = Dissolution in 50 mM phosphate buffer pH = 7.4 at 37° C.; details: 50 mM phosphate buffer pH = 7.4, 37° C.
Description: Samples were prepared and analysed in duplicate. About 20 mg of each sample were weighed into 500 ml Erlenmeyer flask, 200 ml of 50 mM phosphate buffer pH=7.4, previously heated to 37° C. were added and flasks were shaken at 110 rpm for 60 minutes at 37±0.2° C. in an incubator shaker. 3 ml aliquots were taken at 5, 10, 20, 30, 45 and 60 min, filtered through 0.45 μm Chromafil Xtra RC 45/25 syringe filter and analysed by UV/VIS spectrometer (absorbance at 203 nm).
The measurement was performed using the following instruments: • pH/Ion meter PHM 240, MeterLab, Radiometer Analytical • Incubator shaker Innova 4080, New Brunswick Scientific, 19 mm diameter circular orbit • UV/VIS spectrometer Varian Cary 50 Bio, 1 mm quartz cell Results of Eluxadoline samples dissolution in 50 mM phosphate buffer pH=7.4 are summarized in Table 8 below: […]

[5] = Bulk density/tapped density, Hausner ratio and Carr index (Ph. Eur. 2.9.34. Method 1); details: PSD/μm 3/8/24
Description: Bulk density/tapped density and corresponding Hausner ratio and Carr index were determined according to Ph. Eur. 2.9.34. Method 1.

[6] = Texture analysis / density at 0.2 MPa; details: 200 mg sample compressed in steel mould
Description: A simple and low sample consuming method for evaluation of the packing density of powders were obtained as compression profiles under low pressures using a die and a flat-faced punch fitted on a TA-XTplus Texture analyser (Stable Micro Systems Ltd., Godalming, UK). The small amount of 200 mg of sample is compressed in a steel mould (with the rate of displacement 0.03 mm/s). Also, a cyclic procedure (similar to tapping) was performed at maximal compressive displacement 0.5 mm, then retracting, relaxation for 15 s and then repeated compressive steps (altogether up to 20 steps).

Structure (SMILES): COc1ccc(CN(C(=O)[C@@H](N)Cc2c(C)cc(C(N)=O)cc2C)[C@@H](C)c2nc(-c3ccccc3)c[nH]2)cc1C(=O)O [Example 22]
- % weight loss/water cont. - after 21 days, TGA ([1]; 0% RH, 21 days): TGA-0.96%
- % weight loss/water cont. - after 21 days, TGA ([1]; 20% RH, 21 days): TGA-1.26%
- % weight loss/water cont. - after 21 days, TGA ([1]; 40% RH, 21 days): TGA-1.46%
- % weight loss/water cont. - after 21 days, TGA ([1]; 60% RH, 21 days): TGA-6.30%
- % weight loss/water cont. - after 21 days, TGA ([1]; 80% RH, 21 days): TGA-7.00%
- % weight loss/water cont. - after 21 days, TGA ([1]; 100% RH, 21 days): TGA-9.01%
- % weight loss/water cont. - after 21 days, KF ([1]; As is): 1.12%
- % weight loss/water cont. - after 21 days, TGA ([1]; As is): 0.95%
- PXRD results - after 21 days ([2]; 0% RH, 21 days): alpha
- PXRD results - after 21 days ([2]; 20% RH, 21 days): alpha
- PXRD results - after 21 days ([2]; 40% RH, 21 days): alpha
- PXRD results - after 21 days ([2]; 60% RH, 21 days): alpha
- PXRD results - after 21 days ([2]; 80% RH, 21 days): alpha
- PXRD results - after 21 days ([2]; 100% RH, 21 days): alpha
- PXRD results - after 21 days ([2]; As is): alpha
- SSA [3]: 9.63 m^2/g
- % dissolved ([4]; 5 min): 83.62%
- % dissolved ([4]; 10 min): 91.02%
- % dissolved ([4]; 20 min): 95.48%
- % dissolved ([4]; 30 min): 95.87%
- % dissolved ([4]; 45 min): 96.56%
- % dissolved ([4]; 60 min): 96.64%
- Bulk density [5]: 0.33 mg/mm^3
- Carr's index [5]: 14.93%
- Flow character (Carr's index) [5]: good
- Hausner ratio [5]: 1.18
- Tapped density [5]: 0.39 mg/mm^3
- Density at 0.2 MPa [6]: 0.4707 mg/mm^3

From patent US10314819B2, “Solid state forms of Eluxadoline” (TEVA PHARMACEUTICALS INTERNATIONAL GMBH, priority 2015, dated 2019)
